# Experimental data as given in PMC4317638 (Emerging Microbes & Infections, 2014).
# pIC50: −log10 of the molar value. Structures can show the parent of a compound that is named as a salt. Where two headings read alike, the source gives them in different places.
# Assays:
# [1] = system: Ebola VLP entry into HeLa cells; assay: microbe, parasite or virus in culture; format: cell-based, Ebola virus; settings: for pIC50 / IC90 / Emax: Zaire ebolavirus, HeLa; for IC90: read-out: Block Ebola VLP entry IC90; for Emax: read-out: Block Ebola VLP entry Max. Inh.
# in vitro = settings: human, Cytotoxicity IC50
# [2] = read-out: Block Ebola VLP entry IC50
# [3] = read-out: IC50 of blocking Ebola VLP entry
Compound,Selectivity Index [1],"pIC50 [1, 2]",IC90 [1],Emax [1],"pIC50 [1, 3]",pIC50 (in vitro),Activity in the Ebola VLP assay [1]
CCCSc1ccc2nc(NC(=O)OC)[nH]c2c1 [Albendazole],>102 fold,5.31,20.7 µM,76%,5.32,< 3.30,–
CCN(CCCc1ccccc1)CCCc1ccccc1 [Alverine Citrate],>58 fold,5.06,21.8 µM,90%,–,< 3.30,–
CCN(CC)Cc1cc(Nc2ccnc3cc(Cl)ccc23)ccc1O [Amodiaquine],>113 fold,5.35,27.3 µM,106%,–,< 3.30,–
CCN(CC)CCCN(c1ccccc1)C1Cc2ccccc2C1 [Aprindine],>65 fold,5.11,26.6 µM,93%,–,< 3.30,–
O=C(CCN1CCN2CCCC2C1)N1c2ccccc2Sc2ccc(Cl)cc21 (centres unmarked) [Azaclorzine],>53 fold,5.03,37.1 µM,88%,–,< 3.30,–
CC[C@H]1OC(=O)[C@H](C)[C@@H](O[C@H]2C[C@@](C)(OC)[C@@H](O)[C@H](C)O2)[C@H](C)[C@@H](O[C@@H]2O[C@H](C)C[C@H](N(C)C)[C@H]2O)[C@](C)(O)C[C@@H](C)CN(C)[C@H](C)[C@@H](O)[C@]1(C)O [Azithromycin],>179 fold,5.55,15.8 µM,100%,–,< 3.30,–
Cc1c(-c2ccc(O)cc2)n(Cc2ccc(OCCN3CCCCCC3)cc2)c2ccc(O)cc12 [Bazedoxifene],–,–,–,–,–,4.36,–
CN1[C@@H]2CC[C@H]1C[C@@H](OC(c1ccccc1)c1ccccc1)C2 [Benztropine],–,–,8.25 µM,100%,–,3.60,–
Cc1ccc(C(=O)Oc2ccc(C(O)CNC(C)(C)C)cc2OC(=O)c2ccc(C)cc2)cc1 (centres unmarked) [Bitolterol],41 fold,5.21,22.6 µM,85%,–,3.60,–
COc1cc(Nc2c(C#N)cnc3cc(OCCCN4CCN(C)CC4)c(OC)cc23)c(Cl)cc1Cl [Bosutinib],11 fold,5.41,21.3 µM,101%,–,4.36,–
CC(C)C[C@H](NC(=O)[C@H](CCc1ccccc1)NC(=O)CN1CCOCC1)C(=O)N[C@@H](Cc1ccccc1)C(=O)N[C@@H](CC(C)C)C(=O)[C@@]1(C)CO1 [Carfilzomib],>1156 fold,6.36,1.88 µM,57%,–,< 3.30,–
COc1ccc2cc1Oc1ccc(cc1)C[C@H]1c3c(cc4c(c3Oc3cc5c(cc3OC)CCN(C)[C@@H]5C2)OCO4)CCN1C [Cepharanthine],58 fold,5.82,4.4 µM,112%,–,4.05,–
CCN(CC)CCCC(C)Nc1ccnc2cc(Cl)ccc12 (centres unmarked) [Chloroquine],>32 fold,4.82,133 µM,98%,–,< 3.30,–
CC[C@H]1OC(=O)[C@H](C)[C@@H](O[C@H]2C[C@@](C)(OC)[C@@H](O)[C@H](C)O2)[C@H](C)[C@@H](O[C@@H]2O[C@H](C)C[C@H](N(C)C)[C@H]2O)[C@](C)(OC)C[C@@H](C)C(=O)[C@H](C)[C@@H](O)[C@]1(C)O [Clarithromycin],>110 fold,5.34,15.1 µM,100%,–,< 3.30,–
CN(C)CCCN1c2ccccc2CCc2ccc(Cl)cc21 [Clomipramine],–,–,11.7 µM,93%,–,4.19,–
COc1cc2c(c(OC)c1OC)-c1ccc(OC)c(=O)cc1[C@@H](NC(C)=O)CC2 [Colchicine],–,–,0.354 µM,73%,–,< 3.30,–
CC1CCCCN1CCCOC(=O)c1ccc(OC2CCCCC2)cc1 (centres unmarked) [Cyclomethycaine],>65 fold,5.11,19.6 µM,86%,–,< 3.30,–
COc1cccc2c1C(=O)c1c(O)c3c(c(O)c1C2=O)C[C@@](O)(C(C)=O)C[C@@H]3O[C@H]1C[C@H](N)[C@H](O)[C@H](C)O1 [Daunomycin],>190 fold,5.58,5.4 µM,98%,–,< 3.30,–
C[C@H]1O[C@@H](O[C@H]2CC[C@@]3(C)[C@H](CC[C@@H]4[C@@H]3C[C@@H](O)[C@]3(C)[C@@H](C5=CC(=O)OC5)CC[C@]43O)C2)C[C@H](O)[C@@H]1O[C@H]1C[C@H](O)[C@H](O[C@H]2C[C@H](O)[C@H](O[C@@H]3O[C@H](CO)[C@@H](O)[C@H](O)[C@H]3O)[C@@H](C)O2)[C@@H](C)O1 [Deslanoside],515 fold,6.31,11.7 µM,66%,–,3.60,–
CCCCc1oc2ccc(NS(C)(=O)=O)cc2c1C(=O)c1ccc(OCCCN(CCCC)CCCC)cc1 [Dronedarone],21 fold,5.66,3.51 µM,81%,–,4.32,–
COc1cc2ncnc(Nc3ccc(F)c(Cl)c3)c2cc1OCCCN1CCOCC1 [Gefitinib],–,–,17.9 µM,–,–,–,–

Compound,Selectivity Index [1],"pIC50 [1, 2]",IC90 [1],Emax [1],"pIC50 [1, 3]",pIC50 (in vitro),Activity in the Ebola VLP assay [1]
CN(C)CCCN1c2ccccc2CCc2ccccc21 [Imipramine],–,–,–,–,–,< 3.30,–
CO[C@@H]1[C@@H](OC)[C@H](C)[C@@](O)(CC(=O)O)O[C@H]1[C@H](C)[C@H]1O[C@@]2(CC[C@@](C)([C@H]3CC[C@@](C)([C@@H]4O[C@@H]([C@H]5O[C@](C)(O)[C@H](C)C[C@@H]5C)C[C@@H]4O[C@@H]4C[C@H](OC)[C@@H](OC)[C@H](C)O4)O3)O2)C[C@H](O)[C@H]1C [Maduramicin],40 fold,6.21,3.94 µM,104%,–,4.61,–
CNCCCC12CCC(c3ccccc31)c1ccccc12 [Maprotiline],–,–,12.1 µM,100%,–,3.84,–
COC(=O)Nc1nc2ccc(C(=O)c3ccccc3)cc2[nH]1 [Mebendazole],>145 fold,5.46,14 µM,88%,5.47,< 3.30,–
OC(c1cc(C(F)(F)F)nc2c(C(F)(F)F)cccc12)C1CCCCN1 (centres unmarked) [Mefloquine],16 fold,5.56,13 µM,94%,–,4.36,–
COCC(=O)O[C@]1(CCN(C)CCCc2nc3ccccc3[nH]2)CCc2cc(F)ccc2[C@@H]1C(C)C [Mibefradil],10 fold,5.36,7.34 µM,96%,–,4.36,–
O=C(Nc1ccc([N+](=O)[O-])cc1Cl)c1cc(Cl)ccc1O [Niclosamide],>188 fold,5.58,6.6 µM,81%,–,< 3.30,–
Cc1cn(-c2cc(NC(=O)c3ccc(C)c(Nc4nccc(-c5cccnc5)n4)c3)cc(C(F)(F)F)c2)cn1 [Nilotinib],2 fold,4.61,104 µM,100%,4.82,4.30,–
COC(=O)Nc1nc2ccc(C(=O)c3cccs3)cc2[nH]1 [Nocodazole],>1242 fold,6.40,1.04 µM,87%,6.40,< 3.30,–
CCCOc1ccc2nc(NC(=O)OC)[nH]c2c1 [Oxibendazole],>291 fold,5.76,3.75 µM,57%,–,< 3.30,–
CC(=O)c1ccc2c(c1)N(CCCN1CCC(CCO)CC1)c1ccccc1S2 [Piperacetazine],>52 fold,5.01,18.1 µM,90%,–,< 3.30,–
CC[C@@H]([C@H](C)O)n1ncn(-c2ccc(N3CCN(c4ccc(OC[C@@H]5CO[C@@](Cn6cncn6)(c6ccc(F)cc6F)C5)cc4)CC3)cc2)c1=O [Posaconazole],>65 fold,5.11,8.33 µM,77%,–,< 3.30,–
CCCN(CCC)C(=O)C(CCC(=O)OCCCN1CCN(CCOC(=O)Cc2c(C)n(C(=O)c3ccc(Cl)cc3)c3ccc(OC)cc23)CC1)NC(=O)c1ccccc1 (centres unmarked) [Proglumetacin],>73 fold,5.16,17.3 µM,93%,–,< 3.30,–
CCCNCC(O)COc1ccccc1C(=O)CCc1ccccc1 (centres unmarked) [Propafenone],>80 fold,5.20,23.8 µM,100%,5.21,< 3.30,–
"O=C(c1ccc(OCCN2CCCCC2)cc1)c1c(-c2ccc(O)cc2)sc2cc(O)ccc12 [Raloxifene/Evista, Raloxifene]",>271 fold,5.74,9.01 µM,100%,5.74,< 3.30,–
OCc1cc(C(O)CNCCCCCCOCCCCc2ccccc2)ccc1O (centres unmarked) [Salmeterol],>52 fold,5.01,13 µM,90%,–,< 3.30,–
CCN(CC)CCNC(=O)c1c(C)[nH]c(/C=C2\C(=O)Nc3ccc(F)cc32)c1C [Sunitinib],77 fold,5.72,3.82 µM,90%,–,3.83,–
CC/C(=C(\c1ccccc1)c1ccc(OCCN(C)C)cc1)c1ccccc1 [Tamoxifen],–,–,3.15 µM,97%,–,4.00,–
CN1CCN(CCCN2c3ccccc3Sc3ccc(S(=O)(=O)N(C)C)cc32)CC1 [Thioproperazine],–,5.36,12.5 µM,103%,–,< 3.30,–
"CN[C@H]1CC[C@@H](c2ccc(Cl)c(Cl)c2)c2ccccc21 [Zoloft, sertraline]",–,–,9.08 µM,–,–,–,–
Maraviroc,–,–,–,–,–,–,not active
